Values after ≈ are worked out from the molar mass of the structure shown. Active and inactive are the calls of the source. The calls are words filed in the database; no cut-off is given here. Peptide text beside a SMILES is read from it.
Experiments:
Escherichia coli [1] = experiment: Antibacterial activity against multidrug resistant Escherichia coli infected in male Kunming mouse model assessed as reduction in wound size measured after 3 to 5 days by caliper method; assay type: functional, organism-based; settings: time 3-5 day
BEAS-2B = experiment: Cytotoxicity against human BEAS-2B cells at 2 to 256 uM measured after 24 hrs by CCK-8 method; assay type: toxicity, cell-based; settings: dose 2-256 µM
Escherichia coli [2] = experiment: Antimicrobial activity against Escherichia coli ATCC 25922 assessed as reduction in bacterial growth by broth dilution method; assay type: functional
Cell membrane [3] = experiment: Disruption of cell membrane in multi-drug resistant Staphylococcus aureus assessed as stomatal formation at 2 times MIC measured for 120 mins by transmission electron microscopy analysis; assay type: subcellular
Escherichia coli [4] = experiment: Antibacterial activity against multidrug resistant Escherichia coli infected in male Kunming mouse model assessed as recovery of mouse weight measured after 11 days; assay type: functional, organism-based; settings: time 11.0 day
Escherichia coli [5] = experiment: Antibiofilm activity against multi-drug resistant Escherichia coli at 0.5 times MIC measured after 24 hrs by crystal violet staining based analysis; assay type: functional, organism-based
Staphylococcus aureus [6] = experiment: Antimicrobial activity against multi-drug resistant Staphylococcus aureus assessed as reduction in bacterial growth in presence of KCl; assay type: functional, organism-based
Staphylococcus aureus [7] = experiment: Antimicrobial activity against multi-drug resistant Staphylococcus aureus assessed as reduction in bacterial growth in presence of FeCl3; assay type: functional, organism-based
Staphylococcus aureus [8] = experiment: Antibiofilm activity in methicillin-resistant Staphylococcus aureus assessed as eradication of formed biofilm by measuring reduction in viable bacterial count measured after 12 hrs by confocal microscopy based analysis; assay type: functional, organism-based
Cell membrane [9] = experiment: Induction of outer membrane permeabilization in multi-drug resistant Escherichia coli assessed as NPN uptake at 1 to 4 times MIC measured within 1 min by fluorescence based analysis; assay type: subcellular
Escherichia coli [10] = experiment: Antibiofilm activity against multi-drug resistant Escherichia coli measured after 24 hrs by crystal violet staining based analysis; assay type: functional, organism-based
Escherichia coli [11] = experiment: Antibacterial activity against multidrug resistant Escherichia coli infected in male Kunming mouse model assessed as reduction in vascular congestion in presence of levofloxacin by H and E staining based analysis; assay type: functional, organism-based
Escherichia coli [12] = experiment: Antibacterial activity against multidrug resistant Escherichia coli infected in male Kunming mouse model assessed as reduction in tissue hemorrhage in presence of levofloxacin by H and E staining based analysis; assay type: functional, organism-based
Escherichia coli [13] = experiment: Antimicrobial activity against multi-drug resistant Escherichia coli assessed as reduction in bacterial growth measured after 6 hrs in 25% plasma; assay type: functional, organism-based
Cell membrane [14] = experiment: Disruption of cell membrane in multi-drug resistant Staphylococcus aureus assessed as cell shrinkage at 2 times MIC measured for 120 mins by transmission electron microscopy analysis; assay type: subcellular
Staphylococcus aureus [15] = experiment: Bactericidal activity against multi-drug resistant Staphylococcus aureus assessed as eradication of bacterial growth at 2 times MIC measured after 3 hrs by time-kill kinetic assay relative to control; assay type: functional
Staphylococcus aureus [16] = experiment: Antimicrobial activity against multi-drug resistant Staphylococcus aureus assessed as reduction in bacterial growth by broth dilution method; assay type: functional
Escherichia coli [17] = experiment: Antimicrobial activity against multi-drug resistant Escherichia coli assessed as reduction in bacterial growth in presence of KCl; assay type: functional, organism-based
Staphylococcus aureus [18] = experiment: Additive antimicrobial activity against multi-drug resistant Staphylococcus aureus assessed as fractional inhibition concentration index in presence levofloxacin by microplate reader analysis; assay type: functional
[19] = Half life of the compound in 25% plasma; assay type: ADME, cell-free
Staphylococcus aureus [20] = experiment: Antibiofilm activity against multi-drug resistant Staphylococcus aureus measured after 24 hrs by crystal violet staining based analysis; assay type: functional, organism-based
Staphylococcus aureus [21] = experiment: Antimicrobial activity against multi-drug resistant Staphylococcus aureus assessed as reduction in bacterial growth in presence of MgCl2; assay type: functional, organism-based
Escherichia coli [22] = experiment: Antibacterial activity against multidrug resistant Escherichia coli infected in male Kunming mouse model assessed as reduction in epidermal thickening in presence of levofloxacin by H and E staining based analysis; assay type: functional, organism-based
Enterococcus faecalis = experiment: Antimicrobial activity against multi-drug resistant Enterococcus faecalis assessed as reduction in bacterial growth by broth dilution method; assay type: functional
Escherichia coli [23] = experiment: Antimicrobial activity against multi-drug resistant Escherichia coli assessed as reduction in bacterial growth in presence of NaCl; assay type: functional, organism-based
Cell membrane [24] = experiment: Disruption of cell membrane in multi-drug resistant Escherichia coli assessed as appearance of cell shrinkage at 2 times MIC measured for 120 mins by transmission electron microscopy analysis; assay type: subcellular
Cell membrane [25] = experiment: Disruption of cell membrane in multi-drug resistant Staphylococcus aureus assessed as release of cell content at 2 times MIC measured for 120 mins by transmission electron microscopy analysis; assay type: subcellular
Cell membrane [26] = experiment: Disruption of cell membrane in multi-drug resistant Staphylococcus aureus assessed as appearance of ruptured cell membrane at 2 times MIC measured for 120 mins by transmission electron microscopy analysis; assay type: subcellular
Escherichia coli [27] = experiment: Antibacterial activity against multidrug resistant Escherichia coli infected in male Kunming mouse model assessed as reduction in bacterial load measured after 11 days in presence of levofloxacin; assay type: functional, organism-based; settings: time 11.0 day
Escherichia coli [28] = experiment: Antibacterial activity against multidrug resistant Escherichia coli infected in male Kunming mouse model assessed as wound healing measured after 11 days in presence of levofloxacin by caliper method relative to control; assay type: functional; settings: time 11 day
Escherichia coli [29] = experiment: Antimicrobial activity against multi-drug resistant Escherichia coli assessed as reduction in bacterial growth in presence of FeCl3; assay type: functional, organism-based

CC[C@H](C)[C@H](NC(=O)[C@H](CCCCN)NC(=O)[C@@H](NC(=O)[C@H](CCCCN)NC(=O)[C@@H]1CCCN1C(=O)[C@H](Cc1c[nH]c2ccccc12)NC(=O)[C@H](Cc1c[nH]c2ccccc12)NC(=O)[C@H](Cc1c[nH]c2ccccc12)NC(=O)[C@@H]1CCCN1C(=O)[C@H](CCCCN)NC(=O)[C@@H](NC(=O)[C@H](CCCCN)NC(=O)[C@@H](NC(=O)[C@@H](N)CCCCN)[C@@H](C)CC)[C@@H](C)CC)[C@@H](C)CC)C(=O)N[C@@H](CCCCN)C(N)=O (H-KIKIKPWWWPKIKIK-NH2)
Activity (Escherichia coli [1]): Active | Activity (BEAS-2B): Toxic | MIC (Escherichia coli [2]): 4 µM (≈ 7.97 µg/mL) | Activity (Cell membrane [3]): Active | Activity (Escherichia coli [4]): Active | Activity (Escherichia coli [5]): Active | Activity (Staphylococcus aureus [6]): Active | Activity (Staphylococcus aureus [7]): Active | Activity (Staphylococcus aureus [8]): Dose-dependent-effect | Activity (Cell membrane [9]): Active | Activity (Escherichia coli [10]): Dose-dependent-effect | Activity (Escherichia coli [11]): Active | Activity (Escherichia coli [12]): Active | Activity (Escherichia coli [13]): Active | Activity (Cell membrane [14]): Active | Activity (Staphylococcus aureus [15]): 100% | MIC (Staphylococcus aureus [16]): 8 µM (≈ 15.9 µg/mL) | Activity (Escherichia coli [17]): Active | fractional inhibitory concentration index (FICI) (Staphylococcus aureus [18]): 0.75 | half-life [19]: 75.5 h | Activity (Staphylococcus aureus [20]): Dose-dependent-effect | Activity (Staphylococcus aureus [21]): Active | Activity (Escherichia coli [22]): inactive | MIC (Enterococcus faecalis): 4 µM (≈ 7.97 µg/mL) | Activity (Escherichia coli [23]): Active | Activity (Cell membrane [24]): Active | Activity (Cell membrane [25]): Active | Activity (Cell membrane [26]): Active | Activity (Escherichia coli [27]): Active | Activity (Escherichia coli [28]): 100% | Activity (Escherichia coli [29]): Active
